Results as given in US7569596B2, “Imidazolamino compounds” (National Health Research Institutes, priority 2002, dated 2009).

System: Murine leukemic P388 cells
Experiment: In vivo anticancer activity, murine leukemic P388 model
Set-up: species or system DBA/2J mice
Settings: mice intravenously inoculated with P388 cells; given P.O. or I.V. at different doses
Method: Evaluation of in vivo Anticancer Activity
The in vivo anticancer activities of the compounds were evaluated by the following murine leukemic P388 model. Inbred female DBA/2J mice of 4-5 week-old were purchased from the National Laboratory Animals Breeding and Research Center, Taipei, Taiwan, ROC. Murine leukemic P388 cells were purchased from the Japanese Collection of Research Bioresources, Japan. P388 cells were cultured and propagated in RPM11640 medium supplemented with 50 μM 2-mercaptoethanol and 10% fetal bovine serum. Mice at the age of 6 weeks were grouped as the treatment, negative control and positive control groups at 7 to 8 mice per group. All mice were intravenously inoculated with the P388 cells at one million per mouse one day before the treatments initiated. Compound 6 was dissolved in dimethyl sulfoxide (DMSO) and then diluted in 0.5% carboxymethyl cellulose or a Cremophor-based vehicle with the final concentration of DMSO less than 0.5%. Different treatment groups were orally (P.O.) or intravenously (I.V.) given, respectively, with Compound 6 of different doses for a pharmacological dose-response relationship. The mice of the negative control group were treated with the dosing vehicle only. […] The cancer cell-inoculated animals were monitored twice daily. Survival fractions of the mice were recorded. […]

Nc1nc(-c2cccs2)cn1-c1nc(-c2ccccc2)cs1 [Compound 6, 1-(4-phenyl-1,3-thiazol-2-yl)-4-(2-thienyl)-1H-2-imidazolamine]
survival rate of the inoculated mice: increased the survival rate
